From patent US8853213B2, “Bicyclic compound for modulating G protein-coupled receptors” (Hanmi Pharm. Co., Ltd, priority 2011, dated 2014)

target: T1, GPR119 (Homo sapiens, UniProt Q8TDV5); assay: Controlling Effect of GPR119 in CRE-bla CHO-K1 Cells (EC50); type: cell-based; conditions: GPR119 CRE-bla CHO-K1 cell line, 5 hr incubation with compound, β-lactamase LiveBLAzer-FRET B/G readout; read-out: controlling effect against GPR119 in CRE-bla CHO-K1 cell line (EC50)
T1 construct: host or cells: CHO-K1 (CRE-bla reporter, doxycycline-induced)
T1 sequence (Q8TDV5 1-335): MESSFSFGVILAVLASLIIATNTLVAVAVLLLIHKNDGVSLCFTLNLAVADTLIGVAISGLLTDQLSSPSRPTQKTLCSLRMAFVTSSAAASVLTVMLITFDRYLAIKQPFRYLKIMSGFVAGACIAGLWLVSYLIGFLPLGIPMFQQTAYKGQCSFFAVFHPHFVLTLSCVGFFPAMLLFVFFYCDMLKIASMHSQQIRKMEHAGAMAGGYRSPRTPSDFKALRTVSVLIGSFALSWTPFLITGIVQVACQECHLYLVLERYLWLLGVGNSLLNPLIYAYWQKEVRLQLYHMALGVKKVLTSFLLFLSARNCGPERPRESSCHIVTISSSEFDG
Protocol: Controlling Effect of GPR119 in CRE-bla CHO-K1 Cells (EC50)
The day before the experiment, GPR119 CRE-bla CHO-K1 cell line purchased from Invitrogen was seeded in a 96 black well plate in an amount of 80 μl at a density of 5×10^4 cells. After the seeding, 10 μl of doxycycline in a concentration of 1 μg/ml was added to each well and incubated in an incubator at 37° C. under 5% CO2 for about 16 to 20 hr.
The day of experiment, sample compounds were performed a 10-fold serial dilution with a culture medium at various concentrations of 1 uM to […]. Considering that the culture medium used in the seeding and doxycycline are together applied, the sample compounds were diluted to a 5-fold dilution of the planned concentration. 20 μl of the compound diluted with the culture medium was added to each well and incubated in the incubator for 5 hr. The compound-untreated group was added with 20 μl of 0.5% dimethyl sulfoxide (DMSO) diluted with the culture medium. After 5 hr from the incubation, substrate mixture of a 6-fold concentration were prepared; 6 μl of 1 mM LiveBLAzer™-FRET B/G(CCF4-AM) substrate, 60 μl of solution B, 904 μl of solution C and 30 μl of solution D. 12 μl of the substrate mixture was added to each well and allowed to be kept at room temperature for 2 hr with shading the light. Fluorescence intensity value of blue channel and green channel was determined by a fluorescence microplate reader at 409 nm/460 nm and 409 nm/[…] (excitation/emission), respectively. In order to confirm the controlling effect of the inventive compounds against GPR119, EC50 (half maximal effective concentration) was determined based on the determined values. EC50, the concentration at which 50% activity of β-lactamase, was determined according to the following Equation: Equation=[(Ti−Tz)/(C−Tz)]×100
[Wherein, Ti: Cell density of the compound-treated group; Tz: Cell density of the negative control group; and C: Cell density of the positive control group]

`CS(=O)(=O)c1ccc(-c2csc3c(OC4CCN(c5ncc(C6CC6)cn5)CC4)ncnc23)cc1` [Example 56, 4-[1-(5-cyclopropyl-pyrimidin-2-yl)-piperidin-4-yloxy]-7-(4-methanesulfonyl-phenyl)-thieno[3,2-d]pyrimidine] and `CCc1cnc(N2CCC(Oc3ncnc4c(-c5ccc(S(C)(=O)=O)cc5)csc34)C2)nc1` (stereo not shown) [Example 57, 4-[1-(5-ethylpyrimidin-2-yl)-pyrrolidin-3-yloxy]-7-(4-methanesulfonyl-phenyl)-thieno[3,2-d]pyrimidine] cannot be ordered by EC50: under 0.1 µM for the first, under 0.1 µM for the second.

First: CC(C)c1noc(N2CCC(Oc3ncnc4c(-c5ccc(S(C)(=O)=O)cc5)csc34)C2)n1 (stereo not shown) [Example 58, 4-[1-(3-isopropyl-[1,2,4]oxadiazol-5-yl)-pyrrolidin-3-yloxy]-7-(4-methanesulfonyl-phenyl)-thieno[3,2-d]pyrimidine]
Second: CC(C)c1noc(N2CCC(Oc3ncnc4c(-c5ccc(S(C)(=O)=O)cc5F)csc34)CC2)n1 [Example 60, 7-(2-fluoro-4-methanesulfonyl-phenyl)-4-[1-(3-isopropyl-[1,2,4]oxadiazol-5-yl)piperidin-4-yloxy]thieno[3,2-d]pyrimidine]
The EC50 of the first is higher: 0.1 to 1 µM for the first, under 0.1 µM for the second. The second is the more potent here.

Compared with `CS(=O)(=O)c1ccc(-c2csc3c(OC4CCN(c5nccc(C(F)(F)F)n5)CC4)ncnc23)cc1` [Example 59], `CS(=O)(=O)c1ccc(-c2csc3c(OC4CCN(c5nc(-c6ccc(F)cc6)no5)CC4)ncnc23)c(F)c1` [Example 65, 5-(4-(7-(2-fluoro-4-methanesulfonyl-phenyl)thieno[3,2-d]pyrimidin-4-yloxy)piperidin-1-yl)-3-(4-fluorophenyl)-1,2,4-oxadiazole] is lower in EC50: over 1 µM for the first, under 0.1 µM for the second. The second is the more potent here.

`CCc1noc(N2CCC(Oc3ncnc4c(-c5ccc(S(C)(=O)=O)cc5F)csc34)CC2)n1` [Example 61, 3-ethyl-5-(4-(7-(2-fluoro-4-methanesulfonyl-phenyl)thieno[3,2-d]pyrimidin-4-yloxy)piperidin-1-yl)-1,2,4-oxadiazole] and `CCC(C)c1noc(N2CCC(Oc3ncnc4c(-c5ccc(S(C)(=O)=O)cc5F)csc34)CC2)n1` (stereo not shown) [Example 62, 3-sec-butyl-5-(4-(7-(2-fluoro-4-methanesulfonyl-phenyl)thieno[3,2-d]pyrimidin-4-yloxy)piperidin-1-yl)-1,2,4-oxadiazole] cannot be ordered by EC50: under 0.1 µM for the first, under 0.1 µM for the second.

`CS(=O)(=O)c1ccc(-c2csc3c(OC4CCN(c5nc(C6CC6)no5)CC4)ncnc23)c(F)c1` [Example 63, 7-(2-fluoro-4-methanesulfonyl-phenyl)-4-[1-(3-cyclopropyl-[1,2,4]oxadiazol-5-yl)piperidin-4-yloxy]thieno[3,2]pyrimidine] and `CS(=O)(=O)c1ccc(-c2csc3c(OC4CCN(c5nc(-c6ccccc6)no5)CC4)ncnc23)c(F)c1` [Example 64, 5-(4-(7-(2-fluoro-4-methanesulfonyl-phenyl)thieno[3,2-d]pyrimidin-4-yloxy)piperidin-1-yl)-3-phenyl-1,2,4-oxadiazole] cannot be ordered by EC50: under 0.1 µM for the first, under 0.1 µM for the second.

`CS(=O)(=O)c1ccc(-c2csc3c(OC4CCN(c5nc(-c6ccncc6)no5)CC4)ncnc23)c(F)c1` [Example 66, 5-(4-(7-(2-fluoro-4-methanesulfonyl-phenyl)thieno[3,2-d]pyrimidin-4-yloxy)piperidin-1-yl)-3-(pyridin-4-yl)-1,2,4-oxadiazole] and `CS(=O)(=O)c1ccc(-c2csc3c(OC4CCN(c5nc(-c6cccnc6)no5)CC4)ncnc23)c(F)c1` [Example 67, 5-(4-(7-(2-fluoro-4-methanesulfonyl-phenyl)thieno[3,2-d]pyrimidin-4-yloxy)piperidin-1-yl)-3-(pyridin-3-yl)-1,2,4-oxadiazole] cannot be ordered by EC50: under 0.1 µM for the first, under 0.1 µM for the second.

`CS(=O)(=O)c1ccc(-c2csc3c(OC4CCN(c5nc(-c6cnccn6)no5)CC4)ncnc23)c(F)c1` [Example 68, 5-(4-(7-(2-fluoro-4-methanesulfonyl-phenyl)thieno[3,2-d]pyrimidin-4-yloxy)piperidin-1-yl)-3-(pyrazin-2-yl)-1,2,4-oxadiazole] was tested, and the EC50 was 0.1 to 1 µM.
